Assay [1] deals with CCNA1 expression in UCC cell lines. The assay can be described thus: Q-RT-PCR of CCNA1 expression after 5-aza-dc and/or TSA treatment of UCC cell lines. In kind it is cell-based. The conditions noted are these: SW780 and J82 cell lines; 5 μM 5-aza-dc for 5 days; vs PBS control. The method, then:
(§1) UCC cells were seeded in 75 cm2 culture flasks at a density of […] and incubated at 37° C. in 5% CO2/95% air overnight. Cells were then treated with 5μM of 5-aza-dc (Sigma Chemical, Sigma, USA) for 5 days. […] Additionally, combination treatment with 5-aza-dc and TSA was performed by adding 5μM of 5-aza-dc daily for 5 days and TSA (300 nmol/L; Sigma) was added to the medium for the final 24 hours. […] PBS (phosphate buffered saline) alone was used as a control to exclude non-specific solvent effects on cells. All experiments were run independently twice. RNA was extracted using Qiazol Lysis reagent (Qiagen, Valencia, Calif.) according to the manufacturer's instructions. One microgram of total RNA was used for cDNA conversion using the Quantitect Reverse Transcription Kit (Qiagen, Valencia, Calif.), following manufacturer's protocol. Q-RT-PCR was performed using the SYBR Green chemistry in a 7900HT Real-Time PCR System (Applied Biosystems, Foster City, CA). […] The RT-PCR primer sequences are available in Supplementary Table 2B. […] Quantitative reverse transcriptase PCR was performed to determine whether promoter methylation of CCNA1 and CCND2 inversely correlated with their expression. […]

Assay [2] concerns CCND2 expression in UCC cell lines. Kind of assay: Q-RT-PCR of CCND2 expression after 5-aza-dc and/or TSA treatment of UCC cell lines. In kind it is cell-based. The note with it: 5 μM 5-aza-dc for 5 days, vs PBS control. As for the experimental part:
as §1

SMILES strings stand for the structures. Entries after “also recorded” stand apart in the source; their conditions may differ.

As to `Nc1ncn([C@H]2C[C@H](O)[C@@H](CO)O2)c(=O)n1` [5-aza-dc, 5-aza-deoxycytidine], the “CCNA1 expression (real-time RT-PCR)” value in assay [1] is “re-expression of CCNA1; also recorded: Reactivation of CCNA1 was observed”. Moreover, the “CCND2 expression (real-time RT-PCR)” value in assay [2] (HT1376 cell line) is given as “overexpression was observed after 5-aza-dc treatment only (not significant)”; in assay [2] (UMUC-3, J82 and T24 cell lines), “Reactivation of CCND2 was observed”.
